# Data: patent US20220160617A1, “COMPOSITIONS AND METHODS FOR IMPROVING SKIN HEALTH AND FOR THE TREATMENT AND PREVENTION OF DISEASES, DISORDERS AND CONDITIONS ASSOCIATED WITH PATHOGENIC MICROBES” (DermBiont, Inc., priority 2019, published 2022)
# Like-named read-outs stand apart in the source and are kept apart here.
# How the values were obtained:
# [1] = tested on: Janthinobacterium lividum strains; assay: Antibiotic MIC tests, sensitivity summary; type: cell-based
# Experimental: (§1) The antibiotic resistance profile and MICs tests were performed using Janthinobacterium lividum grown from cultures purified and grown in vegitone LB broth.
# [2] = tested on: Janthinobacterium lividum DB00118; assay: Antibiotic MIC test; type: cell-based
# Experimental: as §1
# [3] = tested on: Janthinobacterium lividum DB00121; assay: Antibiotic MIC test; type: cell-based
# Experimental: as §1
# [4] = tested on: Janthinobacterium lividum DB02378; assay: Antibiotic MIC test; type: cell-based
# Experimental: as §1
# [5] = tested on: Janthinobacterium lividum DB02473; assay: Antibiotic MIC test; type: cell-based
# Experimental: as §1
# [6] = tested on: E. Coli ATCC25922; assay: Antibiotic MIC test; type: cell-based
# [7] = tested on: E. Coli ATCC25922; conditions: cited from earlier work
# [8] = tested on: Janthinobacterium lividum strains; assay: Internal antibiotic resistance test (BD BBL Sensi-Disc zone of inhibition); type: cell-based; conditions: all 5 strains; disc content per antibiotic
# Experimental: One Janthinobacterium lividum colony of 3-day old grown in 50% BHI agar was mixed well in 1 ml of 1×PBS buffer, diluted 10× and 100×, respectively. 200 μl of diluted Janthinobacterium lividum cells were evenly plated onto R2A/BHI agar plates in triplicate in 150 mm petri dishes. Antibiotic discs (BD BBL Sensi-Disc antimicrobial susceptibility test discs) were dispensed using a Disc dispenser (BD BBL Sensi-Disc Designer Dispenser System, 12-Place). Plates were incubated for 2-3 days at room temperature and imaged at the end of incubation.
# The sensitivity of Janthinobacterium lividum to antibiotics is reflected by a clear zone of inhibition of Janthinobacterium lividum cells surrounding the antibiotic discs. The zone of inhibition was measured using ImageJ and was transformed into cm for analysis.
# [9] = tested on: Janthinobacterium lividum (DBI001); assay: Biolog Phenotype MicroArray: components enhancing growth of Janthinobacterium in media; type: cell-based
# [10] = tested on: fungal or bacterial pathogens; type: cell-based; conditions: components for enhancing function of human-derived Janthinobacterium lividum
# [11] = Janthinobacterium lividum, DB00121
# [12] = Janthinobacterium lividum, DB02378
compound,measurement,setting,value
Amoxicillin clavulanate,sensitivity of Janthinobacterium lividum strains to antibiotic,[1],less sensitive
same,MIC,[2]; strain DB00118,1 µg/mL
same,MIC,[3]; strain DB00121,0.5 µg/mL
same,MIC,[4]; strain DB02378,1 µg/mL
same,MIC,[5]; strain DB02473,1 µg/mL
same,MIC,[6],8 µg/mL
CCC[C@@H]1C[C@@H](C(=O)N[C@@H]([C@H]2O[C@H](SC)[C@H](O)[C@@H](O)[C@H]2O)[C@H](C)Cl)N(C)C1 [Clindamycin],MIC,"[6]; Escherichia coli, read-out: MIC",> 64 µg/mL
CO/N=C(\C(=O)N[C@@H]1C(=O)N2C(C(=O)[O-])=C(C[N+]3(C)CCCC3)CS[C@H]12)c1csc(N)n1 [Cefepime],MIC,[3]; [11],0.125 µg/mL
same,MIC,[4]; [12],0.125 µg/mL
same,MIC,"[5]; Janthinobacterium lividum, DB02473",0.125 µg/mL
same,"MIC, CLSI QC ranges",[7],0.016 to 0.12 µg/mL
C[C@H]1COc2c(N3CCN(C)CC3)c(F)cc3c(=O)c(C(=O)O)cn1c23 [Levofloxacin],MIC,[3]; [11],0.125 µg/mL
C[C@H]1[C@H](NC(=O)/C(=N\OC(C)(C)C(=O)O)c2csc(N)n2)C(=O)N1S(=O)(=O)O [Aztreonam],sensitivity of Janthinobacterium lividum strains to antibiotic,[1],less sensitive
same,"MIC, CLSI QC ranges",[7],0.06 to 0.25 µg/mL
C[C@@H](O)[C@H]1C(=O)N2C(C(=O)O)=C(S[C@@H]3CN[C@H](C(=O)N(C)C)C3)[C@H](C)[C@H]12 [Meropenem],sensitivity of Janthinobacterium lividum strains to antibiotic,[1],less sensitive
same,"MIC, CLSI QC ranges",[7],0.008 to 0.06 µg/mL
O=C(N[C@H](CO)[C@H](O)c1ccc([N+](=O)[O-])cc1)C(Cl)Cl [Chloramphenicol],sensitivity of Janthinobacterium lividum to antibiotic disc,[8],sensitive
same,sensitivity of Janthinobacterium lividum strains to antibiotic,[1],less sensitive
same,"MIC, CLSI QC ranges",[7],2 to 8 µg/mL
CN(C)c1ccc(O)c2c1C[C@H]1C[C@H]3[C@H](N(C)C)C(O)=C(C(N)=O)C(=O)[C@@]3(O)C(O)=C1C2=O [Minocycline],MIC,"[2]; Janthinobacterium lividum, DB00118",0.125 µg/mL
same,MIC,[4]; [12],0.125 µg/mL
OC[C@@H](O)[C@@H](O)[C@H](O)[C@H](O)CO [D-Mannitol],improvement of growth of human-derived Janthinobacterium lividum,[9],improve the growth
Neomycin,MIC,[2]; strain DB00118,2 µg/mL
same,MIC,[3]; strain DB00121,1 µg/mL
same,MIC,[4]; strain DB02378,2 µg/mL
same,MIC,[5]; strain DB02473,2 µg/mL
same,MIC,[6],2 µg/mL
Tween 40,improvement of growth of human-derived Janthinobacterium lividum,[9],improve the growth
same,Concentration Range of Efficacy,[10],2 to 20 mM
